How the values were obtained:
[1] = Gastric juice secretion in pylorus ligated rats; type: in vivo; conditions: 30 mg/kg, intraperitoneal, 5 hours after administration
Excerpt: (§1) In addition, Compound (I) and a salt thereof may have also an inhibitory effect on gastric juice secretion and may be used for therapy and prophylaxy of peptic ulcer. […] Further, the compound of the present invention is low in toxicity and has high safety as pharmaceuticals.

Acute toxicity (LD50) = conditions: mouse, in vivo; oral, male Std/ddY mice, estimated 7 days after administration
Excerpt: as §1

[2] = Spontaneous locomotion in mice which received apomorphine; type: in vivo; conditions: 45 mg/kg, oral; apomorphine 0.03 or 0.1 mg/kg, s.c.
Excerpt: Compound (I) of the present invention and a salt thereof can also be used as antidepressants because it can effectively shorten the immobility time of mice during forced swimming thereof and also increase spontaneous locomotor activity.

[3] = Survival time of mice under hypobaric hypoxia (closed container, reduced pressure); type: in vivo; conditions: 30 mg/kg (p.o.); pressure 165 mmHg
Excerpt: (§2) The compound (I) of the present invention and a salt thereof are useful as a cerebral activator. More particularly, Compound (I) and a salt thereof can effectively prolong the survival time of mice suffering from KCN-induced cerebral anoxia or hypobaric hypoxia, and show potent protective action against brain ischemia. Compound (I) and a salt thereof can also improve KCN-induced cerebral energy metabolism disorders. Further, Compound (I) and a salt thereof improve scopolamine-induced amnesia, and show potent anticonvulsive, AChE (acetylchline esterase) inhibitory and GABA-mimetic or GABA-potentiative actions. […] Based on these therapeutic effects, Compound (I) and a salt thereof can be used as a cerebral metabolism activator and/or a nootropic drug.

[4] = KCN-induced cerebral energy metabolism disorders; type: in vivo
Excerpt: as §2

[5] = Preventive effect on maximum electroshock-induced convulsion; type: in vivo, male Std/ddY mice; conditions: 100 mg/kg, oral, 1 hour before electroshock
Excerpt: (Preventive effect on maximum electroshock-induced convulsion)
One hour after oral administration of a test compound to male Std/ddY mice, maximum electroshock (AC 900 V, 25 mA, 0.15 second) was delivered to said mice through corneal electrodes from an electrical stimulator.

Row | Compound | inhibition of tonic extensive convulsion induced by maximum electroshock [5] | other results
1 | O=C1N(C/C=C/C=C/c2ccccc2Cl)CCN1c1ccncc1 [(2E,4E)-1-[5-(2-chlorophenyl)-2,4-pentadienyl]-3-(4-pyridyl)-2-imidazolidinone] | – | decrease in gastric juice secretion [1]: ≥ 42%
2 | O=C1N(C/C=C/c2ccccc2)CCN1c1cccnc1 [(E)-1-cinnamyl-3-(3-pyridyl)-2-imidazolidinone] | – | LD50 at 168 h (Acute toxicity (LD50)): > 1500 mg/kg; spontaneous locomotion in mice which received apomorphine [2]: significant increase; survival time of mice which suffered from hypobaric hypoxia [3]: significantly prolong the survival time; KCN-induced cerebral metabolism disorders [4]: improve the KCN-induced cerebral metabolism disorders; decrease in energy metabolism-relating substances (ATP, creatine-P, glucose or glycogen in the brain) induced by KCN [4]: inhibit the decrease
3 | O=C1N(C/C=C/c2ccc(Cl)cc2)CCN1c1cccnc1 [compound 1, (E)-1-(4-chlorocinnamyl)-3-(3-pyridyl)-2-imidazolidinone] | completely inhibited | –
4 | O=C1N(C/C=C/c2ccc(Cl)cc2)CCN1c1ccncc1 [compound 2, (E)-1-(4-chlorocinnamyl)-3-(4-pyridyl)-2-imidazolidinone] | completely inhibited | –
5 | Cl.O=C1N(C/C=C/c2ccccc2)CCN1c1cccnc1 [compound 3, (E)-1-cinnamyl-3-(3-pyridyl)-2-imidazolidinone hydrochloride] | completely inhibited | decrease in gastric juice secretion [1]: ≥ 42%
6 | O=C1N(C/C=C/c2ccccc2)CCN1c1ncccn1 [compound 4, (E)-1-cinnamyl-3-(2-pyrimidinyl)-2-imidazolidinone] | completely inhibited | –
7 | O=C1N(C/C=C/c2cccc(Cl)c2)CCN1c1ccncc1 [compound 5, (E)-1-(3-chlorocinnamyl)-3-(4-pyridyl)-2-imidazolidinone] | completely inhibited | –
8 | O=C1N(C/C=C/c2ccccc2Cl)CCN1c1ccncc1 [compound 6, (E)-1-(2-chlorocinnamyl)-3-(4-pyridyl)-2-imidazolidinone] | completely inhibited | –
9 | Cc1cccc(/C=C/CN2CCN(c3ccncc3)C2=O)c1 [compound 7, (E)-1-(3-methylcinnamyl)-3-(4-pyridyl)-2-imidazolidinone] | completely inhibited | –
10 | O=C1N(CCC/C=C/c2ccccc2)CCN1c1ccncc1 [compound 8, (E)-1-(5-phenyl-4-pentenyl)-3-(4-pyridyl)-2-imidazolidinone] | completely inhibited | –
11 | O=C1N(C/C=C\c2ccccc2)CCN1c1ccncc1 [compound 9, (Z)-1-cinnamyl-3-(4-pyridyl)-2-imidazolidinone] | completely inhibited | –

— patent publication US4886817A, “Imidazolidinones as brain activators” (Tanabe Seiyaku Co., Ltd., priority 1986, dated 1989)
